Experimental data: patent US9604989B2, “Imidazopyridazines as Akt kinase inhibitors” (Bayer Intellectual Property GmbH, priority 2011, dated 2017)
pIC50: −log10 of the molar value.

What was measured:
[1] = molecular target: His-tagged human recombinant kinase full-length Akt1 (Homo sapiens (Human), UniProt P31749); assay: Akt1 kinase assay (Akt1 TR-FRET assay); type: biochemical; settings: 10 μM ATP, 60 min at 22° C., read-out: Akt1 median IC50
Excerpt: Biological Assay 1.0: Akt1 Kinase Assay
Akt1 inhibitory activity of compounds of the present invention was quantified employing the Akt1 TR-FRET assay as described in the following paragraphs.
His-tagged human recombinant kinase full-length Akt1 expressed in insect cells was purchased form Invitrogen (part number PV 3599). As substrate for the kinase reaction the biotinylated peptide biotin-Ahx-[sequence] (C-terminus in amide form) was used which can be purchased e.g. from the company Biosynthan GmbH (Berlin-Buch, Germany).
For the assay 50 nl of a 100 fold concentrated solution of the test compound in DMSO was pipetted into a black low volume 384 well microtiter plate (Greiner Bio-One, Frickenhausen, Germany), 2 μl of a solution of Akt1 in assay buffer [50 mM TRIS/HCl pH 7.5, 5 mM MgCl2, 1 mM dithiothreitol, 0.02% (v/v) Triton X-100 (Sigma)] were added and the mixture was incubated for 15 min at 22° C. to allow pre-binding of the test compounds to the enzyme before the start of the kinase reaction. Then the kinase reaction was started by the addition of 3 μl of a solution of adenosine-tri-phosphate (ATP, 16.7 μM=>final conc. in the 5 μl assay volume is 10 μM) and substrate (1.67 μM=>final conc. in the 5 μl assay volume is 1 μM) in assay buffer and the resulting mixture was incubated for a reaction time of 60 min at 22° C. The concentration of Akt1 in the assay was adjusted depending of the activity of the enzyme lot and was chosen appropriate to have the assay in the linear range, typical enzyme concentrations were in the range of about 0.05 ng/μl (final conc. in the 5 μl assay volume). The reaction was stopped by the addition of 5 μl of a solution of HTRF detection reagents (200 nM streptavidine-XL665 [Cisbio] and 1.5 nM anti-phosho-Serine antibody [Millipore, cat. #35-001] and 0.75 nM LANCE Eu-W 1024 labeled anti-mouse IgG antibody [Perkin Elmer]) in an aqueous EDTA-solution (100 mM EDTA, 0.1% (w/v) bovine serum albumin in 50 mM HEPES/NaOH pH 7.5). The resulting mixture was incubated 1 h at 22° C. to allow the binding of the biotinylated phosphorylated peptide to the streptavidine-XL665 and the antibodies. Subsequently the amount of phosphorylated substrate was evaluated by measurement of the resonance energy transfer from the anti-mouse-IgG-Eu-Chelate to the streptavidine-XL665. Therefore, the fluorescence emissions at 620 nm and 665 nm after excitation at 350 nm was measured in a HTRF reader, e.g. a Rubystar (BMG Labtechnologies, Offenburg, Germany) or a Viewlux (Perkin-Elmer). The ratio of the emissions at 665 nm and at 622 nm was taken as the measure for the amount of phosphorylated substrate.

[2] = molecular target: His-tagged human recombinant kinase full-length Akt2 (Homo sapiens (Human), UniProt P31751); assay: Akt2 kinase assay (Akt2 TR-FRET assay); type: biochemical; settings: 10 μM ATP, 60 min at 22° C., read-out: Akt2 median IC50
His-tagged human recombinant kinase full-length Akt2, sequence (P31751 whole entry): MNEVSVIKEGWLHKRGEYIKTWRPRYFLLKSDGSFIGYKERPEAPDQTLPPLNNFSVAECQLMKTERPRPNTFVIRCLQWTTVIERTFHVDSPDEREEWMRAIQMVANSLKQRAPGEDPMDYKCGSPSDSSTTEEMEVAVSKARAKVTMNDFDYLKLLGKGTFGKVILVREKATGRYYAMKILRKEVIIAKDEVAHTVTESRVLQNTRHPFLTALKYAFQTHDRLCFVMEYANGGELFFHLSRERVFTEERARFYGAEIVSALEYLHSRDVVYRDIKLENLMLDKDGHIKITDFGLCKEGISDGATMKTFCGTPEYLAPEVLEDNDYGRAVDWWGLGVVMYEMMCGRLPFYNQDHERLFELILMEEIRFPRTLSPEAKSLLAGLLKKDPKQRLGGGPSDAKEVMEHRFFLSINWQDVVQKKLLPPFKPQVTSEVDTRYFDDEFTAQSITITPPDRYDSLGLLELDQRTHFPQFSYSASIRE
Excerpt: Akt2 inhibitory activity of compounds of the present invention was quantified employing the Akt2 TR-FRET assay as described in the following paragraphs.
His-tagged human recombinant kinase full-length Akt2 expressed in insect cells and activated by PDK1 was purchased form Invitrogen (part number PV 3975). As substrate for the kinase reaction the biotinylated peptide biotin-Ahx-[sequence] (C-terminus in amide form) was used which can be purchased e.g. from the company Biosynthan GmbH (Berlin-Buch, Germany). For the assay 50 nl of a 100 fold concentrated solution of the test compound in DMSO was pipetted into a black low volume 384 well microtiter plate (Greiner Bio-One, Frickenhausen, Germany), 2 μl of a solution of Akt2 in assay buffer [50 mM TRIS/HCl pH 7.5, 5 mM MgCl2, 1 mM dithiothreitol, 0.02% (v/v) Triton X-100 (Sigma)] were added and the mixture was incubated for 15 min at 22° C. to allow pre-binding of the test compounds to the enzyme before the start of the kinase reaction. Then the kinase reaction was started by the addition of 3 μl of a solution of adenosine-tri-phosphate (ATP, 16.7 μM=>final conc. in the 5 μl assay volume is 10 μM) and substrate (1.67 μM=>final conc. in the 5 μl assay volume is 1 μM) in assay buffer and the resulting mixture was incubated for a reaction time of 60 min at 22° C. The concentration of Akt2 in the assay was adjusted depending of the activity of the enzyme lot and was chosen appropriate to have the assay in the linear range, typical enzyme concentrations were in the range of about 0.2 ng/μl (final conc. in the 5 μl assay volume). The reaction was stopped by the addition of 5 μl of a solution of HTRF detection reagents (200 nM streptavidine-XL665 [Cisbio] and 1.5 nM anti-phosho-Serine antibody [Millipore, cat. #35-001] and 0.75 nM LANCE Eu-W 1024 labeled anti-mouse IgG antibody [Perkin Elmer]) in an aqueous EDTA-solution (100 mM EDTA, 0.1% (w/v) bovine serum albumin in 50 mM HEPES/NaOH pH 7.5). The resulting mixture was incubated 1 h at 22° C. to allow the binding of the biotinylated phosphorylated peptide to the streptavidine-XL665 and the antibodies. Subsequently the amount of phosphorylated substrate was evaluated by measurement of the resonance energy transfer from the anti-mouse-IgG-Eu-Chelate to the streptavidine-XL665. Therefore, the fluorescence emissions at 620 nm and 665 nm after excitation at 350 nm was measured in a TR-FRET reader, e.g. a Rubystar (BMG Labtechnologies, Offenburg, Germany) or a Viewlux (Perkin-Elmer). The ratio of the emissions at 665 nm and at 622 nm was taken as the measure for the amount of phosphorylated substrate.

phospho-AKT at S473 = assay: Cellular p-AKT1/2/3-S473 assay in KPL-4 cells; type: cell-based; settings: Homo sapiens, KPL4; KPL-4 breast tumour cell line, compound treatment 2 hours; read-out: pAKT-S473 median IC50
p-4E-BP1 at T70 = assay: Cellular p-4E-BP1-T70 assay in KPL-4 cells; type: cell-based; settings: Homo sapiens, KPL4; KPL-4 breast tumour cell line, compound treatment 2 hours; read-out: P4EBP1-T70 median IC50
[3] = test system: KPL-4 breast cancer cell line; assay: Tumor cell proliferation assay (CellTiter-Glo), KPL-4; type: cell-based; settings: Homo sapiens, KPL4, 72 h drug exposure, read-out: KLP-4 median IC50
[4] = test system: MCF-7 breast tumour cell line; assay: Tumor cell proliferation assay (CellTiter-Glo), MCF-7; type: cell-based; settings: Homo sapiens, MCF7, 72 h drug exposure, read-out: MCF-7 median IC50

His-tagged human recombinant kinase full-length Akt1, sequence (P31749 whole entry): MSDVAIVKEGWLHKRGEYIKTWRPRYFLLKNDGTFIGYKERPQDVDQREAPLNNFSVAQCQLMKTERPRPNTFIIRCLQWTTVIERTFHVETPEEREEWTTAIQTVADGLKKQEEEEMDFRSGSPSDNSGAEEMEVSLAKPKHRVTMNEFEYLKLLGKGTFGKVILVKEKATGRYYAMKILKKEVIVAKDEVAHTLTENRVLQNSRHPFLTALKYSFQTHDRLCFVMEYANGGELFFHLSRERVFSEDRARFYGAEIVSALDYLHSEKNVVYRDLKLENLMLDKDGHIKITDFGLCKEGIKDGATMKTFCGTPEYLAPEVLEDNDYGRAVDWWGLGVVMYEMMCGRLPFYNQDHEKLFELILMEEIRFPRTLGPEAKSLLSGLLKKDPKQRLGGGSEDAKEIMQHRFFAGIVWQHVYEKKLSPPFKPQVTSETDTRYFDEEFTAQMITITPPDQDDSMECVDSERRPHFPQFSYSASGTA

| pIC50 [1] | pIC50 [2] | pIC50 (phospho-AKT at S473) | pIC50 (p-4E-BP1 at T70) | pIC50 [3] | pIC50 [4] | Structure (SMILES) |
| --- | --- | --- | --- | --- | --- | --- |
| 6.35 | 6.40 | < 5.00 | < 5.00 | < 5.00 | < 5.00 | NC1(c2ccc(-c3nc4ccc(C(=O)O)nn4c3-c3ccccc3)cc2)CCC1 [Example 8, 2-[4-(1-Aminocyclobutyl)phenyl]-3-phenylimidazo[1,2-b]pyridazine-6-carboxylic acid] |
| 7.38 | 7.09 | 6.23 | 5.92 | 5.15 | 5.85 | COC(=O)c1nn2c(-c3ccccc3)c(-c3ccc(C4(N)CCC4)cc3)nc2c(C)c1C [Example 51, Methyl 2-[4-(1-aminocyclobutyl)phenyl]-7,8-dimethyl-3-phenylimidazo[1,2-b]pyridazine-6-carboxylate] |
| 6.72 | 6.80 | 7.05 | 6.26 | 5.70 | 5.72 | NC1(c2ccc(-c3nc4cccnn4c3-c3ccccc3)cc2)CCC1 [Example 25, 1-[4-(3-Phenylimidazo[1,2-b]pyridazin-2-yl)phenyl]cyclobutanamine] |

The remaining lines, values behind:

| Structure (SMILES) | pIC50 [1] | pIC50 [2] | pIC50 (phospho-AKT at S473) | pIC50 (p-4E-BP1 at T70) | pIC50 [3] | pIC50 [4] |
| --- | --- | --- | --- | --- | --- | --- |
| COc1cc(-c2ccncc2)c2nc(-c3ccc(C4(N)CCC4)cc3)c(-c3ccccc3)n2n1 [Example 75, 1-{4-[6-Methoxy-3-phenyl-8-(pyridin-4-yl)imidazo[1,2-b]pyridazin-2-yl]phenyl}cyclobutanamine] | 7.68 | 7.00 | 6.64 | 5.82 | 5.74 | 5.74 |
| NC1(c2ccc(-c3nc4c(-c5ccc(F)cc5)cc(-c5ccc(F)cc5)nn4c3-c3ccccc3)cc2)CCC1 [Example 42, 1-{4-[6,8-Bis(4-fluorophenyl)-3-phenylimidazo[1,2-b]pyridazin-2-yl]phenyl}cyclobutanamine] | 4.70 | 4.70 | 6.92 | 5.59 | 5.55 | 5.38 |
| CCc1cc(-c2cc[nH]n2)c2nc(-c3ccc(C4(N)CCC4)cc3)c(-c3ccccc3)n2n1 [Example 21, 1-{4-[6-Ethyl-3-phenyl-8-(1H-pyrazol-3-yl)imidazo [1,2-b]pyridazin-2-yl]phenyl}cyclobutanamine] | 7.14 | 6.89 | 6.38 | 5.77 | 5.70 | 5.74 |
